These are literature values, as cited in publication PMC9045302, “The Characterization of an Efficient Phenylpyruvate Decarboxylase KDC4427, Involved in 2-Phenylethanol and IAA Production from Bacterial Enterobacter sp. CGMCC 5087” (Microbiology Spectrum, 2022).

In general, Km refers to the concentration of substrate that gives half-maximal velocity.

The target of series [1] is T1, KDC4427 (Enterobacter sp. CGMCC 5087, UniProt Z9M8L3KFT6).
T1 construct: tetramer stated from homology model; ThDP/Mg2+ dependent
The experiment in a line: coupled assay with yeast alcohol dehydrogenase, NADH at […] nm. The class given is biochemical. The settings on record: pH 7.0, 37°C, 0.2 mM ThDP, 0.1 mM MgSO4; footnote: authors' own data cited from their unpublished paper.

Series [2] addresses T1, KDC4427. The description is as above. The class given is biochemical. Conditions: pH 7.0, 37°C, 0.2 mM ThDP, 0.1 mM MgSO4; footnote: authors' own data cited from their unpublished paper. The source holds these as a separate data set.

Regarding `O=C(O)C(=O)Cc1ccccc1` [Phenylpyruvic acid], the Km in series [1] was 0.6 ± 0.02 mM.

Take `O=C(O)C(=O)Cc1c[nH]c2ccccc12` [Indole-3-pyruvic acid]: in series [2], the Km was 0.015 ± 0.002 mM.
